# Laboratory results from article PMC4321555, “Differential inhibition of Arabidopsis superoxide dismutases by peroxynitrite-mediated tyrosine nitration” (Journal of Experimental Botany, 2014).
# Substitutions are numbered along the chain they refer to.
# Experiments:
# Type in all cases: biochemical
# [1] = molecular target: T1, MSD1 (MnSOD; manganese SOD1) (Arabidopsis thaliana, UniProt O81235); assay: NBT-formazan SOD assay (xanthine/xanthine oxidase); conditions: superoxide generated by xanthine oxidase; 570 nm
# T1 sequence (O81235 1-231): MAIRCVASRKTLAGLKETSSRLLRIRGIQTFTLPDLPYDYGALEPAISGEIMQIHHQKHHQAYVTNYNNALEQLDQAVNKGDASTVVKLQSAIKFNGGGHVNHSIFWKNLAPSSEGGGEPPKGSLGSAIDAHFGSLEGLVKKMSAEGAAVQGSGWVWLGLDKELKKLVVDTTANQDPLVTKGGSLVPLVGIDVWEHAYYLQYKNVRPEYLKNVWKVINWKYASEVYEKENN
# [2] = molecular target: T2, FSD3 (FeSOD3; chloroplastic iron SOD3) (Arabidopsis thaliana, UniProt Q9FMX0); assay: NBT-formazan SOD assay (xanthine/xanthine oxidase); conditions: superoxide generated by xanthine oxidase; 570 nm
# T2 sequence (Q9FMX0 1-263 limits assumed): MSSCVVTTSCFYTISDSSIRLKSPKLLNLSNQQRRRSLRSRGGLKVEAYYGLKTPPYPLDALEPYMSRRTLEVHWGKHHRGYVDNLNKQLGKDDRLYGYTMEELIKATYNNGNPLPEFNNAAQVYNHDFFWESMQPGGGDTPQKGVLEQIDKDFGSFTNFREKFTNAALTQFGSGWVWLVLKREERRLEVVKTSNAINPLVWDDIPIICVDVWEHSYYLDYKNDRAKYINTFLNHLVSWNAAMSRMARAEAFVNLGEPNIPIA
# FSD1 = molecular target: T3, FSD1 (Arabidopsis thaliana, UniProt P21276); assay: NBT-formazan SOD assay (xanthine/xanthine oxidase); conditions: superoxide generated by xanthine oxidase; 570 nm
# T3 sequence (P21276 1-212): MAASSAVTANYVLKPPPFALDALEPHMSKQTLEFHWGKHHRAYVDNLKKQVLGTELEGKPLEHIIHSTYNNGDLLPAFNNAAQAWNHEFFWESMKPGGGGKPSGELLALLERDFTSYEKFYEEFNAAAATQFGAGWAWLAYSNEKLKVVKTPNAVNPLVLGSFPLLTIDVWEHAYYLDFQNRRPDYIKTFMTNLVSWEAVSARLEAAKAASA
# CSD1 (Cu/ZnSOD1) = molecular target: T4, CSD1 (Cu/ZnSOD1) (Arabidopsis thaliana, UniProt P24704); assay: NBT-formazan SOD assay (xanthine/xanthine oxidase); conditions: superoxide generated by xanthine oxidase; 570 nm
# T4 sequence (P24704 1-152): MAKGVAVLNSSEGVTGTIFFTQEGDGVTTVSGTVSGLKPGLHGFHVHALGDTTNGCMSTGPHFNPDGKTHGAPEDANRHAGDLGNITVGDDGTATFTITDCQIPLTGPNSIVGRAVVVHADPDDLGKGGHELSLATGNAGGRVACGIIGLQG
# CSD2 (Cu/ZnSOD2) = molecular target: T5, CSD2 (Cu/ZnSOD2) (Arabidopsis thaliana, UniProt O78310); assay: NBT-formazan SOD assay (xanthine/xanthine oxidase); conditions: superoxide generated by xanthine oxidase; 570 nm
# T5 sequence (O78310 1-216 limits assumed): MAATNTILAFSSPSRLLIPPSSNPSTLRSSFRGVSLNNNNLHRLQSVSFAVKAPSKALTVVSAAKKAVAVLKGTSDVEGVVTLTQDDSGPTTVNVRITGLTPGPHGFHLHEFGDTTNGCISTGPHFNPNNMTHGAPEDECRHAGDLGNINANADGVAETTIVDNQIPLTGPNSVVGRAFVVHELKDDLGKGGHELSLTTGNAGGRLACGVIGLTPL
# FSD2 = molecular target: T6, FSD2 (Arabidopsis thaliana, UniProt Q9LU64); assay: NBT-formazan SOD assay (xanthine/xanthine oxidase); conditions: superoxide generated by xanthine oxidase; 570 nm
# T6 sequence (Q9LU64 1-305 limits assumed): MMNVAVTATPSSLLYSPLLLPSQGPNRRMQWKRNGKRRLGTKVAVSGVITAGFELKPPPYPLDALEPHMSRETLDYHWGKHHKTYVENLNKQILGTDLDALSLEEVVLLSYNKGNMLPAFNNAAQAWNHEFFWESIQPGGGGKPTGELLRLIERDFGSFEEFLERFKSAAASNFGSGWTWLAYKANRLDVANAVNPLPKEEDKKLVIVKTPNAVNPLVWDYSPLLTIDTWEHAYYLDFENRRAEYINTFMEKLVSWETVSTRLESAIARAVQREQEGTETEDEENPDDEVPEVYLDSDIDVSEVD
# [3] = molecular target: T7, CSD3 (Cu/ZnSOD3; peroxisomal copper/zinc SOD3) (Arabidopsis thaliana, UniProt Q9FK60); assay: NBT-formazan SOD assay (xanthine/xanthine oxidase); conditions: superoxide generated by xanthine oxidase; 570 nm
# T7 sequence (Q9FK60 1-164): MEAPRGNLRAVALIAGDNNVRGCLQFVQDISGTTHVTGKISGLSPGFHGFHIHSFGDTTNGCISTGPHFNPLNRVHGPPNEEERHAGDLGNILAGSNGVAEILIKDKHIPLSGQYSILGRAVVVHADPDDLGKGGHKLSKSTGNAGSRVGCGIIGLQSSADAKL
# [4] = molecular target: T2, FSD3 (FeSOD3; chloroplastic iron SOD3); assay: SOD activity after peroxynitrite treatment (cytochrome c reduction); conditions: covalent (tyrosine nitration); 20 min, RT, dark; potassium phosphate pH 8.0
# [5] = molecular target: T8, MSD1 (MnSOD; manganese SOD1) (Arabidopsis thaliana, UniProt O81235, Y63F); assay: SOD activity after peroxynitrite treatment; conditions: covalent (tyrosine nitration); 20 min, RT, dark; potassium phosphate pH 8.0
# T8 sequence (O81235 1-231 Y63F): T1 sequence (O81235 1-231) with Y63F
# [6] = molecular target: T7, CSD3 (Cu/ZnSOD3; peroxisomal copper/zinc SOD3); assay: SOD activity after peroxynitrite treatment (cytochrome c reduction); conditions: covalent (tyrosine nitration, Tyr115); 20 min, RT, dark; potassium phosphate pH 8.0
# [7] = molecular target: T1, MSD1 (MnSOD; manganese SOD1); assay: as above; conditions: covalent (tyrosine nitration, mainly Tyr63); 20 min, RT, dark; potassium phosphate pH 8.0
Structure (SMILES),NBT-formazan SOD assay (xanthine/xanthine oxidase) [1],NBT-formazan SOD assay (xanthine/xanthine oxidase) [2],NBT-formazan SOD assay (xanthine/xanthine oxidase) (FSD1),NBT-formazan SOD assay (xanthine/xanthine oxidase) (CSD1 (Cu/ZnSOD1)),NBT-formazan SOD assay (xanthine/xanthine oxidase) (CSD2 (Cu/ZnSOD2)),NBT-formazan SOD assay (xanthine/xanthine oxidase) (FSD2),NBT-formazan SOD assay (xanthine/xanthine oxidase) [3],% remaining activity at 500 μM [4],% inhibition at 500 μM [5],% remaining activity at 500 μM [6],% inhibition at 500 μM [7]
[O]O [superoxide],"The activity of the purified, recombinant SODs was determined using the nitroblue tetrazolium (NBT)–formazan method","The activity of the purified, recombinant SODs was determined using the nitroblue tetrazolium (NBT)–formazan method","The activity of the purified, recombinant SODs was determined using the nitroblue tetrazolium (NBT)–formazan method","The activity of the purified, recombinant SODs was determined using the nitroblue tetrazolium (NBT)–formazan method","The activity of the purified, recombinant SODs was determined using the nitroblue tetrazolium (NBT)–formazan method","The activity of the purified, recombinant SODs was determined using the nitroblue tetrazolium (NBT)–formazan method","The activity of the purified, recombinant SODs was determined using the nitroblue tetrazolium (NBT)–formazan method",–,–,–,–
O=NOO [peroxynitrite],–,–,–,–,–,–,–,65%,30%,65%,~ 90%
